US11591596B2, “Compounds and compositions including phosphorothioated oligodeoxynucleotide, and methods of use thereof” (City of Hope, priority 2015, dated 2023)

How the values were obtained:
[1] = tested on: CML CD34+, CD34+CD38+ committed and CD34+CD38− primitive progenitors; assay: Apoptosis of CML progenitors by Annexin V/DAPI staining; assay type: cell-based, human; conditions: 500 nM combined with NIL 5 uM, 72 hours, compared with CpG-scramble and NIL
Method: CML CD34+, CD34+CD38+ committed and CD34+CD38− primitive progenitors were cultured with CpG-scramble RNA (500 nM), CpG-miR126 inhibitor (500 nM), CpG-scramble RNA (500 nM)+Nilotinib (5 μM), and CpG-miR126 inhibitor (500 nM)+NIL (5 μM) for 72 hours and then apoptosis was analyzed by Annexin V/DAPI staining.
(§1) CML CD34+, CD34+CD38+ committed and CD34+CD38− primitive progenitors were cultured with CpG-scramble RNA (500 nM), CpG-anti-miR126 inhibitor (500 nM), CpG-scramble RNA (500 nM)+Nilotinib (NIL, 5 uM), and CpG-anti-miR126 inhibitor (500 nM)+NIL (5 uM) for 72 hours and then cell cycling and apoptosis were analyzed by EDU/DAPi and Annexin V/DAPi staining.

[2] = tested on: normal and CML CD34+CD38− primitive progenitors; assay: Cell cycling of CD34+CD38- cells by EDU/DAPi staining; assay type: cell-based, human; conditions: 500 nM, 72 hours
Method: FIGS. 9A-9D are a series of cell sorting plots showing increased cell cycle in CD34+CD38− cells after knockdown of […]. Normal (NL; FIGS. 9A-9B) and CML human CD34+CD38− cells (FIGS. 9C-9D) were sorted and then cultured with 500 nm CpG-miR126 inh-Cy3 or CpG-SCR control for 72 hours, and then cell cycling was analyzed by EDU/DAPi staining.
as §1

human AML CD34+ cells = assay: Cell cycling, apoptosis and cell growth of AML CD34+ cells with Ara-c and Doxo; assay type: cell-based; conditions: 500 nM combined with Ara-c and Doxo
Method: AML CD34+ cells were cultured with CpG-anti-miR-126 or CpG-SCR (500 nM) for 48 hours, then furthered cultured with miR126 inh+Ara-c+Doxo or SCR+A+D for 72 hours, then cell cycling, apoptosis (FIG. 12B) and cell growth (FIG. 12C) were analyzed.

mouse CML LSC = assay: In vivo treatment of transplanted CML mice in combination with NIL; conditions: 5 mg/kg i.v. 4 times a week plus NIL 50 mg/kg daily by gavage, 3 weeks
Method: FIGS. 24A-24I. […] BM cells from SCL-tTA/BCR-ABL mice (CD45.2) were transplanted into congenic B6 mice (CD45.1, n=40) to generate a cohort of mice with CML-like disease. Following confirmation of CML development at 4 weeks after transplantation, mice were randomly divided into 4 groups (n=10 each) and treated with CpG-miR-126 inhibitor (5 mg/kg i.v. 4 times a week), CpG-scrRNA (5 mg/kg, i.v. 4 times a week), CpG-miR-126 inhibitor plus NIL (50 mg/kg, daily by gavage), and CpG-scrRNA plus NIL for 3 weeks. Percentage of donor CML cells in peripheral blood (PB) (FIG. 24A), spleen (FIG. 24B) and bone marrow (BM) (FIG. 24C), numbers of donor CML LSK in spleen (FIG. 24D) and BM (FIG. 24E), and numbers of donor CML long term hematopoietic stem cells (LTHSC) in spleen (FIG. 24F) and BM (FIG. 24G) after 3 weeks' treatment were measured. […] The recipient mice were monitored for 16 weeks for CML cell engraftment in blood and leukemia development by WBC count. Frequency of LIC was quantified using L-Calc software (FIG. 24I). […]
BM cells from SCL-tTA/BCR-ABL mice (CD45.2) were transplanted into congenic B6 mice (CD45.1, n=40) to generate a cohort of mice with CML-like disease. […] The recipient mice were monitored for 16 weeks for CML cell engraftment in blood and leukemia development by WBC count. Frequency of LIC was quantified using L-Calc software (FIG. 24I). […]

[3] = compared with Ara-c and Doxo alone

Substance: 5′ G*G*T GCA TCG ATG CAGG*G*G* G*G (SEQ ID NO: 1) xxxxx mCmGmC mAmUmU mAmUmU mAmCmU mCmAmC mGmGmU mAmCmG mA (SEQ ID NO: 17) 3′ [CpG-anti-miR126]
- apoptosis [1]: Increased apoptosis
- cell cycling [2]: Increased cell cycling
- cell growth (human AML CD34+ cells): reduction of cell growth
- apoptosis (human AML CD34+ cells; [3]): significantly increased
- cell cycling (human AML CD34+ cells; [3]): significantly increased
- elimination of mouse CML LSC (mouse CML LSC): enhances elimination of mouse CML LSC
